Test results taken from PMC7948503, “Optimization of a peptide ligand for the adhesion GPCR ADGRG2 provides a potent tool to explore receptor biology” (The Journal of Biological Chemistry, 2020).
Non-standard residues stand in square brackets, D forms with d. Residues, ends and D or L forms follow the SMILES beside them. Phe(4-Me) = Cc1ccc(C[C@H](N)C(=O)O)cc1

Experiments:
Type in all cases: cell-based
ADGRG2-ΔGPS-β N667A = biological target: T1, ADGRG2-ΔGPS-β N667A (Mus musculus, UniProt Q8CJ12, N681A); assay: GloSensor cAMP assay; conditions: mutant N667A; HEK293, cAMP Glosensor
T1 construct: expressed in transfected cells; host or cells: HEK293
Excerpt: (§1) Wildtype ADGRG2 full-length (ADGRG2-FL) was cloned from mouse total cDNA libraries using the following primers: forward, […]; reverse, […], and then ADGRG2-FL, ADGRG2 C-terminal truncation mutant (ADGRG2-β), and ADGRG2-ΔGPS-β (the entire ECD of ADGRG2 was deleted) were subcloned into the pcDNA3.1 expression vector. The ADGRG2-ΔGPS-β mutants (T610A, Y611A, C614A, S661A, W662A, I663A, L665A, Y666A，N667A, F671A, L679A, L683A, I730A, V731A, F741A, F747A, W757A, I758A, N759A, S760A, V762A, F764A, Y765A, V768A, V769A, F772A, V774A, W824A, F826A, F828A, F829A, V834A, V836A, F838A, M839A, I844A, F845A) were generated using a QuikChange Mutagenesis Kit (Stratagene). All mutations were verified by DNA sequencing.
(§2) The Glosensor cAMP assay was performed as described ([6], [39], [40]). HEK293 cells were transfected with the GloSensor plasmid and the desired expression plasmids in 24-well dishes. Twenty-four hours after transfection, the cells were plated on 96-well plates at a cell density of 20,000 cells/well. The cells were maintained in Dulbecco’s modified Eagle’s medium for another 24 h, washed with PBS, and then incubated with 100 μl of solution containing 10% fetal bovine serum, 2% (v/v) GloSensor cAMP reagent, and 88% CO2-independent medium in each well for 2 h. The cAMP signal was examined using a luminescence counter (Mithras LB 940).

ADGRG2-ΔGPS-β F838A = biological target: T2, ADGRG2-ΔGPS-β F838A (Mus musculus, UniProt Q8CJ12, F852A); assay: GloSensor cAMP assay; conditions: mutant F838A; HEK293, cAMP Glosensor
T2 construct: expressed in transfected cells; host or cells: HEK293
Excerpt: as §1, §2

ADGRG2-ΔGPS-β S661A = biological target: T3, ADGRG2-ΔGPS-β S661A (Mus musculus, UniProt Q8CJ12, S675A); assay: GloSensor cAMP assay; conditions: mutant S661A; HEK293, cAMP Glosensor
T3 construct: expressed in transfected cells; host or cells: HEK293
Excerpt: as §1, §2

ADGRG2-ΔGPS-β I758A = biological target: T4, ADGRG2-ΔGPS-β I758A (Mus musculus, UniProt Q8CJ12, I772A); assay: GloSensor cAMP assay; conditions: mutant I758A; HEK293, cAMP Glosensor
T4 construct: expressed in transfected cells; host or cells: HEK293
Excerpt: as §1, §2

ADGRG2-ΔGPS-β Y611A = biological target: T5, ADGRG2-ΔGPS-β Y611A (Mus musculus, UniProt Q8CJ12, Y625A); assay: GloSensor cAMP assay; conditions: mutant Y611A; HEK293, cAMP Glosensor
T5 construct: expressed in transfected cells; host or cells: HEK293
Excerpt: as §1, §2

ADGRG2-ΔGPS-β V774A = biological target: T6, ADGRG2-ΔGPS-β V774A (Mus musculus, UniProt Q8CJ12, V788A); assay: GloSensor cAMP assay; conditions: mutant V774A; HEK293, cAMP Glosensor
T6 construct: expressed in transfected cells; host or cells: HEK293
Excerpt: as §1, §2

ADGRG2-ΔGPS-β = biological target: T7, ADGRG2-ΔGPS-β (Mus musculus, UniProt Q8CJ12); assay: GloSensor cAMP assay, HEK293 transfected with ADGRG2-ΔGPS-β
T7 construct: the entire ECD (including the entire GPS motif) was removed (ADGRG2-ΔGPS-β); expressed in transfected cells; host or cells: HEK293
Excerpt: as §1
Human embryonic kidney 293 (HEK293) cells were maintained in Dulbecco’s modified Eagle’s medium supplemented with 10% fetal bovine serum, penicillin (100 IU/ml), and streptomycin (100 μg/ml) as described ([6], [38]). For receptor or other protein expression, plasmids carrying the desired genes were transfected into cells using Lipofectamine 2000 (Invitrogen).
as §2

T7 sequence (Q8CJ12 618-1009 limits assumed, stated change not applied): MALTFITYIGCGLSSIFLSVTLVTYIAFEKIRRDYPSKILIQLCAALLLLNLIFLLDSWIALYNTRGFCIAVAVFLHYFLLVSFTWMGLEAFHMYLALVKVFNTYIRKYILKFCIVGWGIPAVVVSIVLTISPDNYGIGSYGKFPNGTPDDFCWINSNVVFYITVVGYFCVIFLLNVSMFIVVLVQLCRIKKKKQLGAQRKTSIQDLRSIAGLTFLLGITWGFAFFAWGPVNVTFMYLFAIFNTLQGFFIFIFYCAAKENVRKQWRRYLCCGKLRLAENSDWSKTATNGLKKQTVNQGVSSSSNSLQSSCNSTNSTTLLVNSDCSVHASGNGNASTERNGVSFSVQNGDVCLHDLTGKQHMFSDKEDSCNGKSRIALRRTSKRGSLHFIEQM
T4 sequence (Q8CJ12 614-1009 I772A): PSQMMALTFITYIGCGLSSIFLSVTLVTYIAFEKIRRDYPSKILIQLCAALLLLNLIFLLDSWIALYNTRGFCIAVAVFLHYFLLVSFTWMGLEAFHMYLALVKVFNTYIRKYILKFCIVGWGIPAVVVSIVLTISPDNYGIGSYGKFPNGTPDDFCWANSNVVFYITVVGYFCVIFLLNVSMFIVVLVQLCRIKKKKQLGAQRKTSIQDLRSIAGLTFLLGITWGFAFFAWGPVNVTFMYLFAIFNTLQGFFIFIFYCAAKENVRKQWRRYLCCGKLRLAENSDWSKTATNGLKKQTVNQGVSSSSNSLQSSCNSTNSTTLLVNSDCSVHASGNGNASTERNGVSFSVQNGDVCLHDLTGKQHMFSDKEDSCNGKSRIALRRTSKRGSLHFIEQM
T1 sequence (Q8CJ12 614-1009 N681A): as the sequence (Q8CJ12 614-1009 I772A) above, with N68A, A159I counted along it
T5 sequence (Q8CJ12 614-1009 Y625A): as the sequence (Q8CJ12 614-1009 I772A) above, with Y12A, A159I counted along it
T3 sequence (Q8CJ12 614-1009 S675A): as the sequence (Q8CJ12 614-1009 I772A) above, with S62A, A159I counted along it
T2 sequence (Q8CJ12 614-1009 F852A): as the sequence (Q8CJ12 614-1009 I772A) above, with A159I, F239A counted along it
T6 sequence (Q8CJ12 614-1009 V788A limits assumed): as the sequence (Q8CJ12 614-1009 I772A) above, with A159I, V175A counted along it

EC50 (ADGRG2-ΔGPS-β N667A): 1240 nM
EC50 (ADGRG2-ΔGPS-β F838A): 1700 nM
EC50 (ADGRG2-ΔGPS-β S661A): 2320 nM
EC50 (ADGRG2-ΔGPS-β I758A): 13800 nM
EC50 (ADGRG2-ΔGPS-β Y611A): 1060 nM
EC50 (ADGRG2-ΔGPS-β V774A): 1280 nM
EC50 (ADGRG2-ΔGPS-β; cAMP Glosensor, ADGRG2-ΔGPS-β, HEK293): 1410 ± 160 nM
EC50 (ADGRG2-ΔGPS-β; receptor WT (Table S4), HEK293, cAMP Glosensor): 1060 nM
SMILES: CC[C@H](C)[C@H](NC(=O)CNC(=O)[C@H](Cc1ccc(C)cc1)NC(=O)[C@H](CO)NC(=O)[C@@H](N)C(C)C)C(=O)N[C@@H](CC(C)C)C(=O)N[C@@H](CC(C)C)C(=O)N[C@@H](CC(=O)O)C(=O)N[C@@H](CC(C)C)C(=O)N[C@@H](CO)C(=O)N[C@@H](CCCNC(=N)N)C(=O)N[C@H](C(=O)N[C@@H](CO)C(=O)N[C@@H](CC(C)C)C(=O)N1CCC[C@H]1C(=O)O)[C@@H](C)O [VPM-p15] (H-VS[Phe(4-Me)]GILLDLSRTSLP-OH)
EC50 compared with wildtype p15 or other mutants (ADGRG2-ΔGPS-β; concentration-response curves, cAMP Glosensor, ADGRG2-ΔGPS-β): significant lower EC50 than other mutants
